Experimental data reported in US20230203029A1 (priority 2020, published 2023).
Like-named read-outs stand apart in the source and are kept apart here.

Columns and labels:
[1] = molecular target: T1, human MERTK cytoplasmic domain (Homo sapiens, UniProt Q12866); test: biochemical; settings: 30 uM ATP, read-out: Assay 1a Mer IC50 30 uM ATP
T1 construct: human MERTK cytoplasmic domain (Carna Biosciences 08-108); purchased Carna Biosciences 08-108
Method: Assay 1a—MERTK HTRF KinEASE-TK Assay
The enzymatic reaction was carried out for 30 min at room temperature. 10 μL TK Antibody-Cryptate/Streptavidin-XL665 (Cisbio 610SAXLG) was then added for 60 min, including EDTA containing detection buffer (Cisbio 62SDBRDF) to stop the reaction.

[2] = molecular target: T2, recombinant human MERTK expressed in live cells (HEK 293, MERTK-Nanoluc fusion vector) (Homo sapiens, UniProt Q12866); test: Assay 2 MERTK cellular target engagement (NanoBRET TE) assay; format: cell-based; settings: HEK 293 cells, tracer K9, 2 h at 37° C.; read-out: Assay 2 Cell TE MER IC50
T2 construct: host or cells: HEK 293
T2 sequence (Q12866 21-999): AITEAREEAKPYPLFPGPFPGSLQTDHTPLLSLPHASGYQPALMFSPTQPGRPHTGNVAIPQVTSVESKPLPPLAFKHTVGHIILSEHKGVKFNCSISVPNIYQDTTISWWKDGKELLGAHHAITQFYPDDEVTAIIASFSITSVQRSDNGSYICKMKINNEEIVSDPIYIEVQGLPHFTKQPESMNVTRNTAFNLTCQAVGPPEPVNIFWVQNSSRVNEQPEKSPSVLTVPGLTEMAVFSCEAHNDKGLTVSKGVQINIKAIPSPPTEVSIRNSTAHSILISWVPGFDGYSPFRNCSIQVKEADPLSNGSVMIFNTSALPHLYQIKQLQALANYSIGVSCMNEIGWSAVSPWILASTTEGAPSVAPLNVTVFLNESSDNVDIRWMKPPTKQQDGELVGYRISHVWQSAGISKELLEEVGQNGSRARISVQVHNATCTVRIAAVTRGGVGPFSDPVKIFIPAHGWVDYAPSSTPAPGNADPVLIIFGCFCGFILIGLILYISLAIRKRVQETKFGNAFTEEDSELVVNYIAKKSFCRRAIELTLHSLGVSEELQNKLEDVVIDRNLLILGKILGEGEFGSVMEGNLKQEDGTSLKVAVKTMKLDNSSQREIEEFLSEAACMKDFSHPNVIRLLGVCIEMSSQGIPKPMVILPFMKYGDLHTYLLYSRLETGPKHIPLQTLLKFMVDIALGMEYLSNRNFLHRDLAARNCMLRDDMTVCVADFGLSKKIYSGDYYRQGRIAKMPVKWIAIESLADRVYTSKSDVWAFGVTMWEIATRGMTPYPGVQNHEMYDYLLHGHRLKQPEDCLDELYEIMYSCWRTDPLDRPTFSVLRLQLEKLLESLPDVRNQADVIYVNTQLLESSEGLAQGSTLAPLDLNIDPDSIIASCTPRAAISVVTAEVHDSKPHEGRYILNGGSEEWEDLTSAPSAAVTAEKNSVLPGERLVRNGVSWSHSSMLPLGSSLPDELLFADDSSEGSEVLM

[3] = molecular target: T3, recombinant human AXL expressed in live cells (HEK, AXL-Nanoluc fusion vector) (Homo sapiens, UniProt P30530); test: Assay 3 AXL cellular target engagement (NanoBRET TE) assay; format: cell-based
T3 construct: host or cells: HEK
T3 sequence (P30530 26-894): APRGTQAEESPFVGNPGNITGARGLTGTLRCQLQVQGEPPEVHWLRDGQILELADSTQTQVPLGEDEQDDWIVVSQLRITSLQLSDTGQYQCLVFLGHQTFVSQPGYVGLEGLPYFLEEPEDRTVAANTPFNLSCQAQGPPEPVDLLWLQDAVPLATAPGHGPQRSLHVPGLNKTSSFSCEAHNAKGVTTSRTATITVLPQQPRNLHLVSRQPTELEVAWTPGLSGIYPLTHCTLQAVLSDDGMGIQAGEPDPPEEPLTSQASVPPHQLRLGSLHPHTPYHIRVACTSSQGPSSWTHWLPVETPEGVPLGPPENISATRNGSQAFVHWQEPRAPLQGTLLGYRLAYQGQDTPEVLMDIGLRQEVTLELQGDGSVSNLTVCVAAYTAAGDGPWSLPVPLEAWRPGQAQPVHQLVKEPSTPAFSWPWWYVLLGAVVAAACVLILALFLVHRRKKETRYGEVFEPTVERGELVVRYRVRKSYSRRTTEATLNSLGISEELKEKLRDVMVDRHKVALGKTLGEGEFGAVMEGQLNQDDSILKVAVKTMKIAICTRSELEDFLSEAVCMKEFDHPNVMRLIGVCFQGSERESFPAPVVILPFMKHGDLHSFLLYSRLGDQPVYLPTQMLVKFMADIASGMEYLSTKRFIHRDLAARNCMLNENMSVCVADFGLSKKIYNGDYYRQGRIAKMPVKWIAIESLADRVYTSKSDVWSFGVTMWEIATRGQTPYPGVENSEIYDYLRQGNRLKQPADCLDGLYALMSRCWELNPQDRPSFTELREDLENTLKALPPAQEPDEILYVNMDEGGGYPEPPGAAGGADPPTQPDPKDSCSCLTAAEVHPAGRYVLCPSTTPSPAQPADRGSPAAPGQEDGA
Method: Assay 3—AXL Cellular Target Engagement (TE) Assay
Compound affinities for recombinant human AXL expressed in live cells were assessed via the Promega NanoBRET TE assay technology. Human Embryonic Kidney (HEK) cells were transiently transfected with the AXL-Nanoluc fusion vector (Promega Cat NV1071) using Fugene HD reagent (Promega E2311). […] Incubations were conducted for 2 h at 37° C., after which 20 μl NanoGlo substrate/inhibitor mix (Promega N2161) was added to each well for 2-3 min. The plate was then read on a BMG Pherastar FSX using a NanoBRET filter to record donor emission at 450 nm and acceptor fluorophore emission at 610 nm. From this the BRET ratio (acceptor 610 nm/donor 450 nm) for each data point was calculated.

[4] = molecular target: T4, Ba/F3 Pro B-cell line expressing TEL-human Tyro3 fusion domain (Homo sapiens, UniProt Q06418); format: cell-based; settings: cell survival, 48 h, CellTiter-Glo
T4 sequence (Q06418 518-790 limits assumed): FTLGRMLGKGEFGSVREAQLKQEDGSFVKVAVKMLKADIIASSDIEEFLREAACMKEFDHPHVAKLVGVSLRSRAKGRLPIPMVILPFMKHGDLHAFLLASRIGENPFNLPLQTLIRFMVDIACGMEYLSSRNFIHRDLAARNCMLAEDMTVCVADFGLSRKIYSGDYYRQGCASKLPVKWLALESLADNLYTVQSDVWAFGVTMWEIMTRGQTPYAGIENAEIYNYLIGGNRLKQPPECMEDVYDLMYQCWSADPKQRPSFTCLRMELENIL

[5] = molecular target: T5, Ba/F3 Pro B-cell line expressing BCR-human AXL kinase domain fusion protein (Homo sapiens, UniProt P30530); test: Assay 5 Ba/F3 cell survival assay, BCR-Axl; format: cell-based; settings: read-out: BCR-Axl Ba/F3 IC50, 48 h, CellTiter-Glo
T5 construct: P11274 (Breakpoint cluster region protein)
T5 sequence (P30530 536-807 limits assumed): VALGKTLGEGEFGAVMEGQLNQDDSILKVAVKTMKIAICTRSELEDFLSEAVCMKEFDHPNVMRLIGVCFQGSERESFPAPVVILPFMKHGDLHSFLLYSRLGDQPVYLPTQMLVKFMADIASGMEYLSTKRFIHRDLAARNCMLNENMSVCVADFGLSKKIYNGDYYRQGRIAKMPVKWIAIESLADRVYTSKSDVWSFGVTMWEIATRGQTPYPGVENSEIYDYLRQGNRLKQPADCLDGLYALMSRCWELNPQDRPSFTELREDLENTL
Procedure, shortened: (§1)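 Ba/F3 cells dependent on BCR-AXL or TEL-MERTK fusion kinase (IL3-free; IL3 only for control lines) treated with compound 48 h at 37 °C, 0.25% DMSO. Viability by CellTiter-Glo luminescence; IC50 for half-maximal inhibition of survival from 4-parameter variable-slope fit.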

[6] = molecular target: T6, human AXL cytoplasmic domain (Homo sapiens, UniProt P30530); test: Assay 1b AXL HTRF KinEASE-TK assay; format: biochemical
T6 construct: human AXL cytoplasmic domain (Thermo Fisher A31515); purchased Thermo Fisher A31515
T6 sequence (P30530 473-894 limits assumed): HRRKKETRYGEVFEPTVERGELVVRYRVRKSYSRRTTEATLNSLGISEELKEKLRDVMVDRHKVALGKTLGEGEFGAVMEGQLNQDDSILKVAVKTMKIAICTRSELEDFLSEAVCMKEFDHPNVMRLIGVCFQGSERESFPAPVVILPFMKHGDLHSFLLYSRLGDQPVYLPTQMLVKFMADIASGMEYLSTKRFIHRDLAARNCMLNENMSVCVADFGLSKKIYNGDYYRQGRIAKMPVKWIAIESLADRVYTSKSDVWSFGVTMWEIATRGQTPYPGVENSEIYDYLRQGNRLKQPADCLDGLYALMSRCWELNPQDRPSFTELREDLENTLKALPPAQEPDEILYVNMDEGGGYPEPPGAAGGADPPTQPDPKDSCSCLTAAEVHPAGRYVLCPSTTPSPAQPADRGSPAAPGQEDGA
Procedure, shortened: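 Recombinant cytoplasmic domain (5 nM) in kinase buffer with 5 mM MgCl2, 1 mM MnCl2, 1 mM DTT, 50 nM SEB plus test compounds; reaction 30 min at room temperature. EDTA-containing detection with TK antibody-cryptate/streptavidin-XL665 for 60 min; HTRF 665/620 ratio read. IC50 from 4-parameter logistic fit with variable slope.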

[7] = molecular target: T7, Ba/F3 Pro B-cell line expressing TEL-human MERTK fusion domain (Homo sapiens, UniProt Q12866); format: cell-based; settings: cell survival, 48 h, CellTiter-Glo; read-out: TEL-MERTK Ba/F3 IC50
T7 sequence (Q12866 587-858 limits assumed): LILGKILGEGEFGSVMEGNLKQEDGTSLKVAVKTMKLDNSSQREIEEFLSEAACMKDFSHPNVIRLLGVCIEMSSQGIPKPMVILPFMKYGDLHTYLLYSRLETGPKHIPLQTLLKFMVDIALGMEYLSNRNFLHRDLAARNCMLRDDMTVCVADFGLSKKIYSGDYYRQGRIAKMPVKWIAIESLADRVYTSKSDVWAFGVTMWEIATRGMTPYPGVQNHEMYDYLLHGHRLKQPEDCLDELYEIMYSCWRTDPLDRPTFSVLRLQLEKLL
Procedure, shortened: as §1

[8] = * Maximal inhibition achieved 40%

Row | IC50 [1] | IC50 [2] | IC50 [3] | IC50 [1, 8] | IC50 [6] | SMILES | IC50 [4] | IC50 [5] | IC50 [7]
1 | 0.196 µM | 0.163 µM | 1.41 µM | – | – | O=C(Nc1ccc(Nc2ccnc3cnc(N4CCOCC4)cc23)cc1)c1cccn(-c2ccccc2)c1=O [Example 2.1, N-[4-[(6-morpholino-1,7-naphthyridin-4-yl)amino]phenyl]-2-oxo-1-phenyl-pyridine-3-carboxamide] | – | – | –
2 | – | 0.174 µM | 0.363 µM | 0.017 µM | – | NC(=O)c1cc2c(Nc3ccc(NC(=O)c4cccn(-c5ccccc5)c4=O)cc3)ccnc2cn1 [Example 5.2, 4-[4-[(2-oxo-1-phenyl-pyridine-3-carbonyl)amino]anilino]-1,7-naphthyridine-6-carboxamide] | – | – | –
3 | 0.052 µM | 0.11 µM | 0.11 µM | – | – | CN1CCC(NC(=O)c2cc3c(Oc4ccc(NC(=O)c5cccn(-c6ccccc6)c5=O)cc4)ccnc3cn2)CC1 [Example 6, N-(1-methyl-4-piperidyl)-4-[4-[(2-oxo-1-phenyl-pyridine-3-carbonyl)amino]phenoxy]-1,7-naphthyridine-6-carboxamide] | – | – | –
4 | 0.033 µM | 2.19 µM | – | – | – | Cc1c(C(=O)Nc2ccc(Nc3ccnc4cnc(N5CCNCC5)cc34)cc2)c(=O)n(-c2ccccc2)n1C [Example 1.4, 1,5-dimethyl-3-oxo-2-phenyl-N-[4-[(6-piperazin-1-yl-1,7-naphthyridin-4-yl)amino]phenyl]pyrazole-4-carboxamide] | – | – | –
5 | 0.07 µM | 0.135 µM | 0.335 µM | – | – | O=C(NOCCO)c1cc2c(Nc3ccc(NC(=O)c4cccn(-c5ccccc5)c4=O)cc3)ccnc2cn1 [Example 5.1, N-(2-hydroxyethoxy)-4-[4-[(2-oxo-1-phenyl-pyridine-3-carbonyl)amino]anilino]-1,7-naphthyridine-6-carboxamide] | – | – | –
6 | – | 0.0419 µM | 0.0467 µM | 0.011 µM | – | CNC(=O)c1cc2c(Nc3ccc(NC(=O)c4cccn(-c5ccccc5)c4=O)cc3)ccnc2cn1 [Example 5.3, N-methyl-4-[4-[(2-oxo-1-phenyl-pyridine-3-carbonyl)amino]anilino]-1,7-naphthyridine-6-carboxamide] | – | – | –
7 | – | 2.9 µM | – | 0.003 µM | – | Cn1cc(-c2cc3c(Nc4ccc(NC(=O)c5cccn(-c6ccccc6)c5=O)cc4)ccnc3cn2)cn1 [Example 4, N-[4-[[6-(1-methylpyrazol-4-yl)-1,7-naphthyridin-4-yl]amino]phenyl]-2-oxo-1-phenyl-pyridine-3-carboxamide] | – | – | –
8 | 0.003 µM | – | – | – | 0.031 µM | O=C(Nc1ccc(Oc2ccnc3cnc(N4CCNCC4)cc23)cc1)c1cccc(-c2ccc(F)cc2)[n+]1[O-] [Example 12.6, 6-(4-fluorophenyl)-1-oxido-N-[4-[(6-piperazin-1-yl-1,7-naphthyridin-4-yl)oxy]phenyl]pyridin-1-ium-2-carboxamide] | 0.11 µM | 0.006 µM | 0.016 µM
